Results reported in patent US10730870B2, “Compounds and methods for the enhanced degradation of targeted proteins” (Arvinas, Inc., priority 2015, dated 2020).

target: VHL (Homo sapiens (Human), UniProt P40337); experiment: VHL fluorescence polarization (FP) competition assay; assay type: binding; conditions: 1% in DMSO

| IC50 | VHL FP Assay IC50 | SMILES |
| --- | --- | --- |
| 37.7 µM | – | CC[C@H](C)[C@H](NC(C)c1ccccc1)C(=O)N1C[C@H](O)C[C@H]1C(=O)NCc1ccc(-c2scnc2C)cc1 (stereo partly drawn) [Example 105, (2S,4R)-4-hydroxy-1-((2S,3S)-3-methyl-2-(1-phenylethylamino)pentanoyl)-N-(4-(4-methylthiazol-5-yl)benzyl)pyrrolidine-2-carboxamide] |
| 14.2 µM | – | Cc1c(-c2ccc(CNC(=O)[C@@H]3C[C@@H](O)CN3C(=O)[C@H](C(C)C)N3Cc4ccccc4C3=O)cc2)ncn1C [Example 106, (2S,4R)—N-(4-(1,5-dimethyl-1H-imidazol-4-yl)benzyl)-4-hydroxy-1-((S)-3-methyl-2-(1-oxoisoindolin-2-yl)butanoyl)pyrrolidine-2-carboxamide] |
| 6.67 µM | – | Cc1ncsc1-c1ccc(CNC(=O)[C@@H]2C[C@@H](O)CN2c2cccc(Oc3ccccc3)c2)cc1 [Example 109, (2S,4R)-4-hydroxy-N-(4-(4-methylthiazol-5-yl)benzyl)-1-(3-phenoxyphenyl)pyrrolidine-2-carboxamide] |
| 0.859 µM | – | COC1=CC(=O)N([C@H](C(=O)N2C[C@H](O)C[C@H]2C(=O)NCc2ccc(-c3scnc3C)cc2)C(C)C)C1 [Example 111, (2S,4R)-4-hydroxy-1-((S)-2-(4-methoxy-2-oxo-2,5-dihydro-1H-pyrrol-1-yl)-3-methylbutanoyl)-N-(4-(4-methylthiazol-5-yl)benzyl)pyrrolidine-2-carboxamide] |
| > 100 µM | – | Cc1ncsc1-c1ccc(CN/C(=N/C#N)[C@@H]2C[C@@H](O)CN2C(=O)[C@H](C(C)C)N2Cc3ccccc3C2=O)cc1 [Example 112, (2S,4R,E)-N′-cyano-4-hydroxy-1-((S)-3-methyl-2-(1-oxoisoindolin-2-yl)butanoyl)-N-(4-(4-methylthiazol-5-yl)benzyl)pyrrolidine-2-carboximidamide] |
| > 10 µM | – | CC(C)[C@@H](C(=O)N1C[C@H](O)C[C@H]1C(=O)NCc1ccc(C2CC2)cc1)N1Cc2ccccc2C1=O [Example 113, (2S,4R)—N-(4-cyclopropylbenzyl)-4-hydroxy-1-((S)-3-methyl-2-(1-oxoisoindolin-2-yl)butanoyl)pyrrolidine-2-carboxamide] |
| 47.3 µM | – | CC(C)[C@@H](C(=O)N1C[C@H](O)C[C@H]1C(=O)NCc1ccc(C2CCC2)cc1)N1Cc2ccccc2C1=O [Example 114, (2S,4R)—N-(4-cyclobutylbenzyl)-4-hydroxy-1-((S)-3-methyl-2-(1-oxoisoindolin-2-yl)butanoyl)pyrrolidine-2-carboxamide] |
| 15.8 µM | – | CC(C)[C@@H](C(=O)N1C[C@H](O)C[C@H]1C(=O)NCc1ccc(C2CCCC2)cc1)N1Cc2ccccc2C1=O [Example 115, (2S,4R)—N-(4-cyclopentylbenzyl)-4-hydroxy-1-((S)-3-methyl-2-(1-oxoisoindolin-2-yl)butanoyl)pyrrolidine-2-carboxamide] |
| 3.9 µM | – | CC(C)[C@@H](C(=O)N1C[C@H](O)C[C@H]1C(=O)NCc1ccc(C2=CCCC2)cc1)N1Cc2ccccc2C1=O [Example 116, (2S,4R)—N-(4-cyclopentenylbenzyl)-4-hydroxy-1-((S)-3-methyl-2-(1-oxoisoindolin-2-yl)butanoyl)pyrrolidine-2-carboxamide] |
| 15.5 µM | – | CC(C)[C@@H](C(=O)N1C[C@H](O)C[C@H]1C(=O)NCc1ccc(C2CCCCC2)cc1)N1Cc2ccccc2C1=O [Example 117, (2S,4R)—N-(4-cyclohexylbenzyl)-4-hydroxy-1-((S)-3-methyl-2-(1-oxoisoindolin-2-yl)butanoyl)pyrrolidine-2-carboxamide] |
| 330 µM | – | CC(C)[C@@H](C(=O)N1C[C@H](O)C[C@H]1C(=O)NCc1ccc(C2CCOCC2)cc1)N1Cc2ccccc2C1=O [Example 118, (2S,4R)-4-hydroxy-1-((S)-3-methyl-2-(1-oxoisoindolin-2-yl)butanoyl)-N-(4-(tetrahydro-2H-pyran-4-yl)benzyl)pyrrolidine-2-carboxamide] |
| – | Not Active | Cc1ncsc1-c1ccc(CNC(=O)[C@@H]2C[C@@H](S)CN2C(=O)[C@H](C(C)C)N2Cc3ccccc3C2=O)cc1 [Example 119, (2S,4R)-4-mercapto-1-((S)-3-methyl-2-(1-oxoisoindolin-2-yl)butanoyl)-N-(4-(4-methylthiazol-5-yl)benzyl)pyrrolidine-2-carboxamide] |
| 15.5 µM | – | CO/N=C(/NCc1ccc(-c2scnc2C)cc1)[C@@H]1C[C@@H](O)CN1C(=O)[C@H](C(C)C)N1Cc2ccccc2C1=O [Example 120, (2S,4R,E)-4-hydroxy-N′-methoxy-1-((S)-3-methyl-2-(1-oxoisoindolin-2-yl)butanoyl)-N-(4-(4-methylthiazol-5-yl)benzyl)pyrrolidine-2-carboximidamide] |
| > 100 µM | – | Cc1ncsc1-c1ccc(CNC[C@@H]2C[C@@H](O)CN2C(=O)[C@H](C(C)C)N2Cc3ccccc3C2=O)cc1 [Example 121, 2-((S)-1-((2S,4R)-4-hydroxy-2-((4-(4-methylthiazol-5-yl)benzylamino)methyl)pyrrolidin-1-yl)-3-methyl-1-oxobutan-2-yl)isoindolin-1-one] |
| 2.18 µM | – | Cc1ncsc1-c1ccc(CNC(=O)[C@@H]2C[C@@H](O)CN2C(=O)[C@@H](NC(=O)[C@H](C)NC(=O)OC(C)(C)C)C(C)(C)C)cc1 [Example 122, tert-butyl (S)-1-((S)-1-((2S,4R)-4-hydroxy-2-(4-(4-methylthiazol-5-yl)benzylcarbamoyl)pyrrolidin-1-yl)-3,3-dimethyl-1-oxobutan-2-ylamino)-1-oxopropan-2-ylcarbamate] |
| 4.23 µM | – | Cc1ncsc1-c1ccc(CNC(=O)[C@@H]2C[C@@H](O)CN2C(=O)[C@@H](NC(=O)[C@H](C)N)C(C)(C)C)cc1 [Example 123, (2S,4R)-1-((S)-2-((S)-2-aminopropanamido)-3,3-dimethylbutanoyl)-4-hydroxy-N-(4-(4-methylthiazol-5-yl)benzyl)pyrrolidine-2-carboxamide] |
| 1.11 µM | – | Cc1ncsc1-c1ccc(CNC(=O)[C@@H]2C[C@@H](O)CN2C(=O)[C@@H](NC(=O)CNC(=O)OC(C)(C)C)C(C)(C)C)cc1 [Example 124, tert-butyl 2-((S)-1-((2S,4R)-4-hydroxy-2-(4-(4-methylthiazol-5-yl)benzylcarbamoyl)pyrrolidin-1-yl)-3,3-dimethyl-1-oxobutan-2-ylamino)-2-oxoethylcarbamate] |
| 1.64 µM | – | Cc1ncsc1-c1ccc(CNC(=O)[C@@H]2C[C@@H](O)CN2C(=O)[C@@H](NC(=O)CN)C(C)(C)C)cc1 [Example 125, (2S,4R)-1-((S)-2-(2-aminoacetamido)-3,3-dimethylbutanoyl)-4-hydroxy-N-(4-(4-methylthiazol-5-yl)benzyl)pyrrolidine-2-carboxamide] |
| 79.5 µM | – | Cc1ncsc1-c1ccc(CNC(=N)[C@@H]2C[C@@H](O)CN2C(=O)[C@H](C(C)C)N2Cc3ccccc3C2=O)cc1 [Example 126, (2S,4R)-4-hydroxy-1-((S)-3-methyl-2-(1-oxoisoindolin-2-yl)butanoyl)-N-(4-(4-methylthiazol-5-yl)benzyl)pyrrolidine-2-carboximidamide] |

same assay, conditions: 10% in DMSO

| IC50 | SMILES |
| --- | --- |
| 112 µM | Cc1ncsc1-c1ccc(CNC(=N)[C@@H]2C[C@@H](O)CN2C(=O)[C@H](C(C)C)N2Cc3ccccc3C2=O)cc1 [Example 126, (2S,4R)-4-hydroxy-1-((S)-3-methyl-2-(1-oxoisoindolin-2-yl)butanoyl)-N-(4-(4-methylthiazol-5-yl)benzyl)pyrrolidine-2-carboximidamide] |
| 406 µM | CC(C)[C@@H](C(=O)N1C[C@H](O)C[C@H]1C(=O)NCc1ccc(C2(O)COC2)cc1)N1Cc2ccccc2C1=O [Example 127, (2S,4R)-4-hydroxy-N-(4-(3-hydroxyoxetan-3-yl)benzyl)-1-((S)-3-methyl-2-(1-oxoisoindolin-2-yl)butanoyl)pyrrolidine-2-carboxamide] |
